Laboratory results: patent US9695155B2, “Herbicidal substituted pyrimidinyloxy benzene compounds” (E. I. DU PONT DE NEMOURS AND COMPANY, priority 2013, dated 2017)

What was measured:
deadnettle = experiment: Test D preemergence; type: in vivo, Lamium amplexicaule; conditions: Lamium amplexicaule, pre-emergence, scale 0-100, read-out: Plant response rating, Deadnettle
Source text: (§1) Seeds of plant species selected from bluegrass (annual bluegrass, Poa annua), blackgrass (Alopecurus myosuroides), canarygrass (littleseed canarygrass, Phalaris minor), chickweed (common chickweed, Stellaria media), galium (catchweed bedstraw, Galium aparine), bromegrass, downy (downy bromegrass, Bromus tectorum), field poppy (Papaver rhoeas), field violet (Viola arvensis), green foxtail (Setaria viridis), deadnettle (henbit deadnettle, Lamium amplexicaule), Italian ryegrass (Lolium multiflorum), kochia (Kochia scoparia), lambsquarters (Chenopodium album), oilseed rape (Brassica napus), pigweed (Amaranthus retroflexus), chamomile (scentless chamomile, Matricaria inodora), Russian thistle (Salsola kali), speedwell (bird's-eye speedwell, Veronica persica), spring barley (Hordeum vulgare), spring wheat (Triticum aestivum), wild buckwheat (Polygonum convolvulus), wild mustard (Sinapis arvensis), wild oat (Avena fatua), wild radish (Raphanus raphanistrum), windgrass (Apera spica-venti), winter barley (Hordeum vulgare), and winter wheat (Triticum aestivum) were planted into a silt loam soil and treated preemergence with test chemicals formulated in a non-phytotoxic solvent mixture which included a surfactant.
(§2) At the same time, these species were planted in pots containing Redi-Earth® planting medium (Scotts Company, 14111 Scottslawn Road, Marysville, Ohio 43041) comprising spaghnum peat moss, vermiculite, wetting agent and starter nutrients and treated with postemergence applications of the test chemicals formulated in the same manner. Plants ranged in height from 2 to 18 cm (1- to 4-leaf stage). Treated plants and controls were maintained in a controlled growth environment for 7 to 21 days after which time all species were compared to controls and visually evaluated. Plant response ratings, summarized in Table D, are based on a scale of 0 to 100 where 0 is no effect and 100 is complete control. A dash (-) response means no test result.

spring wheat = experiment: Test D preemergence; type: in vivo, Triticum aestivum; conditions: Triticum aestivum, pre-emergence
Source text: as §1, §2

wild buckwheat = experiment: Test D postemergence; type: in vivo, Polygonum convolvulus; conditions: Fallopia convolvulus, post-emergence, Postemergence, scale 0 to 100 (0 no effect, 100 complete control), read-out: Plant response rating, Buckwheat, Wild
Source text: as §1, §2

oilseed rape = experiment: Test D preemergence; type: in vivo, Brassica napus; conditions: Brassica napus, pre-emergence, scale 0-100, read-out: Plant response rating, Oilseed Rape
Source text: as §1, §2

speedwell = experiment: Test D preemergence; type: in vivo, Veronica persica; conditions: Veronica persica, pre-emergence
Source text: as §1, §2

bluegrass [1] = experiment: Test D preemergence; type: in vivo, Poa annua; conditions: Poa annua, pre-emergence, scale 0-100, read-out: Plant response rating, Bluegrass
Source text: as §1, §2

lambsquarters = experiment: Test D postemergence; type: in vivo, Chenopodium album; conditions: Chenopodium album, post-emergence, scale 0 to 100 (0 no effect, 100 complete control), read-out: Plant response rating, Lambsquarters
Source text: as §1, §2

canarygrass = experiment: Test D preemergence; type: in vivo, Phalaris minor; conditions: Phalaris minor, pre-emergence, scale 0-100, read-out: Plant response rating, Canarygrass
Source text: as §1, §2

pigweed = experiment: Test D preemergence; type: in vivo, Amaranthus retroflexus; conditions: Amaranthus retroflexus, pre-emergence
Source text: as §1, §2

wild oat = experiment: Test D preemergence; type: in vivo, Avena fatua; conditions: Avena fatua, pre-emergence, scale 0-100, read-out: Plant response rating, Oat, Wild
Source text: as §1, §2

bluegrass [2] = experiment: Test D postemergence; type: in vivo, Poa annua; conditions: Poa annua, post-emergence, Postemergence, scale 0 to 100 (0 no effect, 100 complete control), read-out: Plant response rating, Bluegrass
Source text: as §1, §2

Q: What does the source list for `N#Cc1cccc(Oc2ncc(Cl)cn2)c1-n1cc(Br)cn1` [Compound 52, 2-(4-bromo-1H-pyrazol-1-yl)-3-[(5-chloro-2-pyrimidinyl)oxy]benzonitrile]?
A: pest or weed control at 31 g/ha (deadnettle; 31 g ai/ha): 70%; pest or weed control at 62 g/ha (deadnettle; 62 g ai/ha): 75%; pest or weed control at 125 g/ha (deadnettle; 125 g ai/ha): 100%; pest or weed control at 250 g/ha (deadnettle; 250 g ai/ha): 100%; plant injury at 31 g/ha (spring wheat; 31 g ai/ha, scale 0 (no effect) to 100 (complete control), read-out: Plant response rating, Wheat, Spring): 0%; plant injury at 62 g/ha (spring wheat; 62 g ai/ha, scale 0-100, read-out: Plant response rating, Wheat, Spring): 0%; plant injury at 125 g/ha (spring wheat; 125 g ai/ha, scale 0-100, read-out: Plant response rating, Wheat, Spring): 0%; plant injury at 250 g/ha (spring wheat; 250 g ai/ha, scale 0-100, read-out: Plant response rating, Wheat, Spring): 30%; pest or weed control at 31 g/ha (wild buckwheat; 31 g ai/ha): 80%; pest or weed control at 62 g/ha (wild buckwheat; 62 g ai/ha): 95%; pest or weed control at 125 g/ha (wild buckwheat; 125 g ai/ha): 100%; pest or weed control at 250 g/ha (wild buckwheat; 250 g ai/ha): 100%; plant injury at 31 g/ha (oilseed rape; 31 g ai/ha): 0%; plant injury at 62 g/ha (oilseed rape; 62 g ai/ha): 80%; plant injury at 125 g/ha (oilseed rape; 125 g ai/ha): 100%; plant injury at 250 g/ha (oilseed rape; 250 g ai/ha): 100%; pest or weed control at 31 g/ha (speedwell; 31 g ai/ha, scale 0 (no effect) to 100 (complete control), read-out: Plant response rating, Speedwell): 100%; pest or weed control at 62 g/ha (speedwell; 62 g ai/ha, scale 0-100, read-out: Plant response rating, Speedwell): 100%; pest or weed control at 125 g/ha (speedwell; 125 g ai/ha, scale 0-100, read-out: Plant response rating, Speedwell): 100%; pest or weed control at 250 g/ha (speedwell; 250 g ai/ha, scale 0-100, read-out: Plant response rating, Speedwell): 100%; pest or weed control at 31 g/ha (bluegrass [1]; 31 g ai/ha): 0%; pest or weed control at 62 g/ha (bluegrass [1]; 62 g ai/ha): 0%; pest or weed control at 125 g/ha (bluegrass [1]; 125 g ai/ha): 10%; pest or weed control at 250 g/ha (bluegrass [1]; 250 g ai/ha): 60%; pest or weed control at 31 g/ha (lambsquarters; 31 g ai/ha): 80%; pest or weed control at 62 g/ha (lambsquarters; 62 g ai/ha): 75%; pest or weed control at 125 g/ha (lambsquarters; 125 g ai/ha): 75%; pest or weed control at 250 g/ha (lambsquarters; 250 g ai/ha): 95%; pest or weed control at 31 g/ha (canarygrass; 31 g ai/ha): 0%; pest or weed control at 62 g/ha (canarygrass; 62 g ai/ha): 0%; pest or weed control at 125 g/ha (canarygrass; 125 g ai/ha): 35%; pest or weed control at 250 g/ha (canarygrass; 250 g ai/ha): 55%; pest or weed control at 31 g/ha (pigweed; 31 g ai/ha, scale 0 (no effect) to 100 (complete control), read-out: Plant response rating, Pigweed): 100%; pest or weed control at 62 g/ha (pigweed; 62 g ai/ha, scale 0-100, read-out: Plant response rating, Pigweed): 100%; pest or weed control at 125 g/ha (pigweed; 125 g ai/ha, scale 0-100, read-out: Plant response rating, Pigweed): 100%; pest or weed control at 250 g/ha (pigweed; 250 g ai/ha, scale 0-100, read-out: Plant response rating, Pigweed): 100%; pest or weed control at 31 g/ha (wild oat; 31 g ai/ha): 0%; pest or weed control at 62 g/ha (wild oat; 62 g ai/ha): 0%; pest or weed control at 125 g/ha (wild oat; 125 g ai/ha): 0%; pest or weed control at 250 g/ha (wild oat; 250 g ai/ha): 20%; pest or weed control at 31 g/ha (bluegrass [2]; 31 g ai/ha): 15%; pest or weed control at 62 g/ha (bluegrass [2]; 62 g ai/ha): 20%; pest or weed control at 125 g/ha (bluegrass [2]; 125 g ai/ha): 15%; pest or weed control at 250 g/ha (bluegrass [2]; 250 g ai/ha): 25%
